What follows are compounds tested on Escherichia coli (ATCC25922) or Staphylococcus aureus (ATCC25923) (assay: Antibacterial MIC, microdilution method in Mueller-Hinton medium). Settings: Escherichia coli, 18 h, MIC in E. coli or S. aureus; two-fold serial dilutions 64 to 0.5 μg/ml in duplicate; 18 hours of incubation at 35° C.; read-out: Potency (MIC).
Format: cell-based
In short: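 Read after 18 h incubation at 35° C, MIC is the lowest compound level that blocked growth. Compounds were tested in duplicate over 64–0.5 μg/ml two-fold dilutions using Mueller-Hinton microdilution per NCCLS standard.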

| Structure (SMILES) | MIC [µg/mL] |
| --- | --- |
| Cl.O=C(CC(O)c1ccc(Nc2nc(N3CCCCC3)nc(N3CCCCC3)n2)cc1)Nc1ccccc1C(F)(F)F [N-{4-[1-hydroxy-2-(2-trifluoromethyl-phenylcarbazmoyl)-ethyl]-phenyl}-4,6-Bis-((3R,5S)-3,5-diamino-piperidin-1-yl)-[1,3,5]triazine-2-amine] | < 64 |
| N[C@@H]1C[C@H](N)CN(c2nc(Nc3ccc(C(=O)CC(=O)Nc4ccccc4Cl)cc3)nc(N3C[C@H](N)C[C@H](N)C3)n2)C1 [N-{4-[2-(2-chloro-phenylcarbamoyl)-acetyl]-phenyl}-4,6-Bis-((3R,5S)-3,5-diamino-piperidin-1-yl)-[1,3,5]triazine-2-amine] | < 16 |
| Cl.N[C@@H]1CC(c2nc(Nc3ccc(C(=O)CC(=O)Nc4ccccc4N4CCOCC4)cc3)nc(N3C[C@H](N)C[C@H](N)C3)n2)C[C@H](N)C1 (stereo partly drawn) [N-{4-[2-(2-morpholin-4-yl-phenylcarbamoyl)-acetyl]-phenytl}-4,6-Bis-((3R,5S)-3,5-diamino-piperidin-1-yl)-[1,3,5]triazine-2-ammine] | < 16 |
| COc1cc(NC(=O)CC(=O)c2ccc(Nc3nc(N4C[C@H](N)C[C@H](N)C4)nc(N4C[C@H](N)C[C@H](N)C4)n3)cc2)cc(OC)c1OC [N-{4-[2-(3,4,5-trimethoxy-phenylcarbamoyl)-acetyl]-phenyl}-4,6-Bis-((3R,5S)-3,5-diamino-piperidin-1-yl)-[1,3,5]triazine-2-amine] | > 64 |
| Cl.O=C(CC(=O)c1ccc(Nc2nc(N3CCCCC3)nc(N3CCCCC3)n2)cc1)Nc1cccc(Br)c1 [N-{4-[2-(3-bromo-phenylcarbamoyl)-acetyl]-phenyl}-4,6-Biss-((3R,5S)-3,5-diamino-piperidin-1-yl)-[1,3,5]triazine-2-amine] | < 16 |

Same assay, conditions: Escherichia coli, 18 h, read-out: Potency (MIC)

| Structure (SMILES) | MIC [µg/mL] |
| --- | --- |
| N[C@@H]1C[C@H](N)CN(c2nc(Nc3ccc(C(=O)CC(=O)Nc4ccc5c(c4)OC(F)(F)O5)cc3)nc(N3C[C@H](N)C[C@H](N)C3)n2)C1 [N-{4-[2-(2,2-difluoro-benzo[1,3]dioxol-5-ylcarbamoyl)-acetyl]-phenyl}-4,6-Bis-((3R,5S)-3,5-diamino-piperidin-1-yl)-[1,3,5]triazine-2-amine] | < 16 |
| N[C@@H]1C[C@H](N)CN(c2nc(Nc3ccc(C(=O)CC(=O)Nc4ccc(Cl)cc4Cl)cc3)nc(N3C[C@H](N)C[C@H](N)C3)n2)C1 [N-{4-[2-(2,4-dichloro-phenylcarbamoyl)-acetyl]-phenyl}-4,6-Bis-((3R,5S)-3,5-diamino-piperidin-1-yl)-[1,3,5]triazine-2-amine] | < 64 |
| COc1ccc(OC)c(NC(=O)CC(=O)c2ccc(Nc3nc(N4C[C@H](N)C[C@H](N)C4)nc(N4C[C@H](N)C[C@H](N)C4)n3)cc2)c1 [N-{4-[2-(2,5-dimethoxy-phenylcarbamoyl)-acetyl]-phenyl}-4,6-Bis-((3R,5S)-3,5-diamino-piperidin-1-yl)-[1,3,5]triazine-2-amine] | < 64 |
| N[C@@H]1C[C@H](N)CN(c2nc(Nc3ccc(C(=O)CC(=O)Nc4cc(C(F)(F)F)ccc4Cl)cc3)nc(N3C[C@H](N)C[C@H](N)C3)n2)C1 [N-{4-[2-(2-chloro-5-trifluoromethyl-phenylcarbamoyl)-acetyl]-phenyl}-4,6-Bis-((3R,5S)-3,5-diamino-piperidin-1-yl)-[1,3,5]triazine-2-amine] | < 16 |
| N[C@@H]1C[C@H](N)CN(c2nc(Nc3ccc(C(=O)CC(=O)Nc4ccccc4F)cc3)nc(N3C[C@H](N)C[C@H](N)C3)n2)C1 [N-{4-[2-(2-fluoro-phenylcarbamoyl)-acetyl]-phenyl}-4,6-Bis-((3R,5S)-3,5-diamino-piperidin-1-yl)-[1,3,5]triazine-2-amine] | < 64 |
| N[C@@H]1C[C@H](N)CN(c2nc(Nc3ccc(C(=O)CC(=O)Nc4ccccc4C(F)(F)F)cc3)nc(N3C[C@H](N)C[C@H](N)C3)n2)C1 [N-{4-[2-(2-trifluoromethyl-phenylcarbamoyl)-acetyl]-phenyl}-4,6-Bis-((3R,5S)-3,5-diamino-piperidin-1-yl)-[1,3,5]triazine-2-amine] | < 64 |
| N[C@@H]1C[C@H](N)CN(c2nc(Nc3ccc(C(=O)CC(=O)Nc4ccc(F)c(F)c4)cc3)nc(N3C[C@H](N)C[C@H](N)C3)n2)C1 [N-{4-[2-(3,4-difluoro-phenylcarbamoyl)-acetyl]-phenyl}-4,6-Bis-((3R,5S)-3,5-diamino-piperidin-1-yl)-[1,3,5]triazine-2-amine] | < 16 |
| Nc1cccc(NC(=O)CC(=O)c2ccc(Nc3nc(N4C[C@H](N)C[C@H](N)C4)nc(N4C[C@H](N)C[C@H](N)C4)n3)cc2)c1 [N-{4-[2-(3-amino-phenylcarbamoyl)-acetyl]-phenyl}-4,6-Bis-((3R,5S)-3,5-diamino-piperidin-1-yl)-[1,3,5]triazine-2-amine] | > 64 |
| N[C@@H]1C[C@H](N)CN(c2nc(Nc3ccc(C(=O)CC(=O)Nc4ccc(F)c(Cl)c4)cc3)nc(N3C[C@H](N)C[C@H](N)C3)n2)C1 [N-{4-[2-(3-chloro-4-fluoro-phenylcarbamoyl)-acetyl]-phenyl}-4,6-Bis-((3R,5S)-3,5-diamino-piperidin-1-yl)-[1,3,5]triazine-2-amine] | < 16 |
| N[C@@H]1C[C@H](N)CN(c2nc(Nc3ccc(C(=O)CC(=O)Nc4cccc(Cl)c4)cc3)nc(N3C[C@H](N)C[C@H](N)C3)n2)C1 [N-{4-[2-(3-chloro-phenylcarbamoyl)-acetyl]-phenyl}-4,6-Bis-((3R,5S)-3,5-diamino-piperidin-1-yl)-[1,3,5]triazine-2-amine] | < 16 |
| N[C@@H]1C[C@H](N)CN(c2nc(Nc3ccc(C(=O)CC(=O)Nc4cccc(CO)c4)cc3)nc(N3C[C@H](N)C[C@H](N)C3)n2)C1 [N-{4-[2-(3-hydroxymethyl-phenylcarbamoyl)-acetyl]-phenyl}-4,6-Bis-((3R,5S)-3,5-diamino-piperidin-1-yl)-[1,3,5]triazine-2-amine] | > 64 |
| N[C@@H]1C[C@H](N)CN(c2nc(Nc3ccc(C(=O)CC(=O)Nc4cccc(OC(F)(F)F)c4)cc3)nc(N3C[C@H](N)C[C@H](N)C3)n2)C1 [N-{4-[2-(3-trifluoromethoxy-phenylcarbamoyl)-acetyl]-phenyl}-4,6-Bis-((3R,5S)-3,5-diamino-piperidin-1-yl)-[1,3,5]triazine-2-amine] | < 16 |
| N[C@@H]1C[C@H](N)CN(c2nc(Nc3ccc(C(=O)CC(=O)Nc4cccc(C(F)(F)F)c4)cc3)nc(N3C[C@H](N)C[C@H](N)C3)n2)C1 [N-{4-[2-(3-trifluoromethyl-phenylcarbamoyl)-acetyl]-phenyl}-4,6-Bis-((3R,5S)-3,5-diamino-piperidin-1-yl)-[1,3,5]triazine-2-amine] | < 16 |
| N[C@@H]1C[C@H](N)CN(c2nc(Nc3ccc(C(=O)CC(=O)Nc4cccc(SC(F)(F)F)c4)cc3)nc(N3C[C@H](N)C[C@H](N)C3)n2)C1 [N-{4-[2-(3-trifluoromethylsulfanyl-phenylcarbamoyl)-acetyl]-phenyl}-4,6-Bis-((3R,5S)-3,5-diamino-piperidin-1-yl)-[1,3,5]triazine-2-amine] | < 16 |
| NCc1ccc(NC(=O)CC(=O)c2ccc(Nc3nc(N4C[C@H](N)C[C@H](N)C4)nc(N4C[C@H](N)C[C@H](N)C4)n3)cc2)cc1 [N-{4-[2-(4-aminomethyl-phenylcarbamoyl)-acetyl]-phenyl}-4,6-Bis-((3R,5S)-3,5-diamino-piperidin-1-yl)-[1,3,5]triazine-2-amine] | > 64 |
